Experimental data published in US10975056B2 (GlaxoSmithKline Intellectual Property Development Limited, priority 2016, dated 2021).
Where a name gives a salt, the structure may show the parent alone. Read-outs that look alike come from different tables or passages of the source.

Assays:
[1] = system: sickle cell disease (SCD) model transgenic mice; test: Fetal hemoglobin in sickle cell disease transgenic mouse model, % HbF protein by HPLC; format: in vivo; conditions: oral, 10 or 50 mg/kg BID daily, measured by HPLC
From the text: FIG. 2A depicts the effect of Compound A on fetal hemoglobin in the transgenic mouse model.

[2] = system: human hemoglobin transgenic mice (sickle cell disease model); test: Sickle cell mouse model, fetal hemoglobin induction in vivo; conditions: for increase in % F RBCs / increase in % F reticulocytes: 2 week dose period; for increase in % HbF protein: two weeks
From the text: A mouse model of sickle cell disease was utilized to measure the in vivo efficacy of Compound A previously shown to have potent in vitro activity in human primary erythroid progenitor cells derived from normal bone marrow or sickle cell patient peripheral blood mononuclear cells.
The in vivo activity of Compound A was investigated in the sickle cell mouse model in accordance with US/UK standards of animal care.
Male and female human hemoglobin transgenic mice [B6; 129-Hbatm1(HBA)Tow/Hbbtm2(HBG1,HBB*)Tow/J Mice (Jackson Laboratories, Me.)] were approximately 6-8 weeks old and weighed approximately 15-25 grams at the initiation of the studies. To the extent possible, groups were gender balanced and comprised of 6 mice.
Mice were administered vehicle (10% DMA/90% PEG400), 10 or 50 mg/kg Compound A twice daily (BID) by oral route five days per week, over a two week period.
At the end of the dosing period, mice were euthanized by CO2 asphyxiation and blood from the vena cava was collected into EDTA tubes for fetal hemoglobin analysis. % HbF protein was determined by high performance liquid chromatography and % F cells (HbF expressing erythrocytes) were determined by flow cytometry. The mouse monoclonal anti-human HbF antibody conjugated to APC (Life Technologies, Grand Island, N.Y.) was used to identify HbF expressing erythroid cells. The nuclear dye, syto16, (Life Technologies) was used to separate the reticulocyte and RBC populations. Protein and cellular data were collected on the Bio-Rad D10 analyzer (Bio-Rad, Benicia, Calif.) and the FACs Canto I (BD BioSciences, San Jose, Calif.) respectively. Flow cytometry data was analyzed with Flowjo v7 software (Treestar, Inc Ashland. Oreg.). Group mean and standard deviation were determined for the control and treatment groups. Data were graphed and analyzed using 1-Way ANOVA with Tukey post test (Graphpad Prism v5 [La Jolla, Calif.]).

human full length DNMT1 = human full length DNMT1 (Homo sapiens (Human), UniProt P26358); test: DNMT1 breaklight assay; format: biochemical; conditions: repeated experimental runs, read-out: average IC50 against DNMT1
human full length DNMT1, sequence (P26358 whole entry): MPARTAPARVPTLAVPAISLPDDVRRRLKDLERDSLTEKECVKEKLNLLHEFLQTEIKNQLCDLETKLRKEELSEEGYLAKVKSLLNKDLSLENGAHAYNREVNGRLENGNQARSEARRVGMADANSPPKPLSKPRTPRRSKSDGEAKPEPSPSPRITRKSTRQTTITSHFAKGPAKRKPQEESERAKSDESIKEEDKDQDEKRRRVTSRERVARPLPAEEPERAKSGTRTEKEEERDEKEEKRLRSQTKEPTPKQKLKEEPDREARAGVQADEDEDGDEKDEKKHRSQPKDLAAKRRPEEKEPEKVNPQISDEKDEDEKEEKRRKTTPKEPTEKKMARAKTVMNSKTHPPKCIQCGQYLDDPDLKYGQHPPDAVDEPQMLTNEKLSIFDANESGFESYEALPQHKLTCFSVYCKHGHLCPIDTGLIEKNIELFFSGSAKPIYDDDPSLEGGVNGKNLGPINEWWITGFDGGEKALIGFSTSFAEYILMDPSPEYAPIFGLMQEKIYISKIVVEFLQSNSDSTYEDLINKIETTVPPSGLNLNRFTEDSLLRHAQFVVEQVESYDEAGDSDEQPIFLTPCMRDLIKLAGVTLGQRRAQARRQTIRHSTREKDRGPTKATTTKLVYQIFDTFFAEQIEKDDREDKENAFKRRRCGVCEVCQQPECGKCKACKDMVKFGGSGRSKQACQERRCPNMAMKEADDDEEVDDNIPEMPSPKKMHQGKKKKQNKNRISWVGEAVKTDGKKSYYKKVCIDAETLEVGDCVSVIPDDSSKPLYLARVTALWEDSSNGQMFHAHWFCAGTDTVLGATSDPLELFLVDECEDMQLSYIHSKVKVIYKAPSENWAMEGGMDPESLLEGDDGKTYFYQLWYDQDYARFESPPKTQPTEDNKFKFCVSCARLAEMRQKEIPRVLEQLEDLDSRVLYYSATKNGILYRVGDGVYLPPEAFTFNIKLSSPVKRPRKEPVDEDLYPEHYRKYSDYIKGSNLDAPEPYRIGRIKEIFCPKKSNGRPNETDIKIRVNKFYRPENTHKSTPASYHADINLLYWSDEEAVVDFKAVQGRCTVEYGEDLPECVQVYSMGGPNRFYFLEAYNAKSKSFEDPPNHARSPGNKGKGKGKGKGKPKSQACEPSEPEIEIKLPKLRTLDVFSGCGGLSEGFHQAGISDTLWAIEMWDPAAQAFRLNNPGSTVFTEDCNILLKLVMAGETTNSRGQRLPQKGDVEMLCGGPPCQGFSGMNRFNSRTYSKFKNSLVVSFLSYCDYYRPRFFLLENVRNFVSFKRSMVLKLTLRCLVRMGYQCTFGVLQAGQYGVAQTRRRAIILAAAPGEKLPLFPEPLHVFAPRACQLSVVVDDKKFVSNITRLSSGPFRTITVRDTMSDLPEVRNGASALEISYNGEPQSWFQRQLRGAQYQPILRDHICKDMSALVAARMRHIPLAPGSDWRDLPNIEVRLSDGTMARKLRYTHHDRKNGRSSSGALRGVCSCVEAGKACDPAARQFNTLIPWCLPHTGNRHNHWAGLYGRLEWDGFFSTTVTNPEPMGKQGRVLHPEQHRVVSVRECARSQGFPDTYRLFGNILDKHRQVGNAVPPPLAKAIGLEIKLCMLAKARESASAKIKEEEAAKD
Method: DNMT1 breaklight in vitro assays were conducted in a total volume of 50 μl in a standard 384 well format, using black non-binding surface microplates (Corning 3575). Five μl of human full length DNMT1 (produced internally), used at a final concentration of 40 nM, was added to 5 μl of substrate mixture containing final concentrations of 125 nM hemi methylated oligonucleotide (synthesized at ATD Bio; 5′-FAM-[…]5[…]5G5TAGAT-3′ where 5=methyl deoxycitidine) and 2 μM ultrapure SAM (Cisbio #62SAHZLD). Negative control wells used 5 μl of DNMT1 and 5 μl of oligonucleotide but 0 μM SAM. All reagents were made up in 1× assay buffer (20 mM Tris pH 6.8, 25 mM NaCl, 0.5 mM MgCl2, 0.01% Triton X100 and 1 mM DTT). The reaction was incubated at 26° C. for 45 min and then stopped with the addition of 40 μl detection reagent. Detection reagent, made up in 1× Gla assay buffer (20 mM Tris pH 8.0, 80 mM NaCl, 0.75 mM MgCl2, 0.01% Triton X100 and 1 mM DTT) has a final concentration of 100 μM SAH (Sigma #A9384) and 0.0008 units/μl Gla1 restriction endonuclease (Sibenzyme #E494). Following addition of the detection reagent the plate was incubated in the dark at room temperature for 5 hr. Fluorescence intensity was then measured on the PHERAstar FS (BMG Labtech) at Ex 485 nm and Em 520 nm, with a gain of 400 and an integration time of 100 ms.

DNMT3B = DNMT3B (Homo sapiens (Human), UniProt Q9UBC3); test: DNMT3B breaklight assay; format: biochemical
human DNMT3a/3l = human DNMT3a/3l (Homo sapiens (Human), UniProt Q9Y6K1); test: DNMT3a/3l breaklight assay; format: biochemical
human DNMT3a/3l, sequence (Q9Y6K1 whole entry, looked up): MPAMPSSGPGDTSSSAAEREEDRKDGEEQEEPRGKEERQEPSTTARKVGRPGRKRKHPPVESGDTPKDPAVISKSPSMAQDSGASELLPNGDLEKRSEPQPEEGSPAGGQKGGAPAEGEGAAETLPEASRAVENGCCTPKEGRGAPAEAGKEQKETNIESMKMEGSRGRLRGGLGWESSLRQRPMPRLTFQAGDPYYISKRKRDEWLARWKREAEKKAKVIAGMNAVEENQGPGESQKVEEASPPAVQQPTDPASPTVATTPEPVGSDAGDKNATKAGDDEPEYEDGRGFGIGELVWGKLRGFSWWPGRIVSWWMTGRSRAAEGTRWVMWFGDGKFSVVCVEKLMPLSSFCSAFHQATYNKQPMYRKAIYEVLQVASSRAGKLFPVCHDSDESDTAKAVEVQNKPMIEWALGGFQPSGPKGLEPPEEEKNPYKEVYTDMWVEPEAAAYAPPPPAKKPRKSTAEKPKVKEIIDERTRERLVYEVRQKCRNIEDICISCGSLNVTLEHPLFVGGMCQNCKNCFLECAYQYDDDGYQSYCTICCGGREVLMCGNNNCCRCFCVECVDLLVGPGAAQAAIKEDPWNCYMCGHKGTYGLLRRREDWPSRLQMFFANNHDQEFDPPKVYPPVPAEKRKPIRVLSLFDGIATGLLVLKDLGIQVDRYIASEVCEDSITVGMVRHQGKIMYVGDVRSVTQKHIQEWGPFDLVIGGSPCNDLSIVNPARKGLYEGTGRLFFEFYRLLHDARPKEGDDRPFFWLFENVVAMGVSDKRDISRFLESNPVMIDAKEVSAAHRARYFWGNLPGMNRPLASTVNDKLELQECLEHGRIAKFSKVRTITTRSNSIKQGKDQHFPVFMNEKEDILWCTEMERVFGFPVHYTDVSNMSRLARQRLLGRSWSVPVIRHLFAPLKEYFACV
human DNMT3a/3l, sequence (Q9UJW3 whole entry partner, looked up): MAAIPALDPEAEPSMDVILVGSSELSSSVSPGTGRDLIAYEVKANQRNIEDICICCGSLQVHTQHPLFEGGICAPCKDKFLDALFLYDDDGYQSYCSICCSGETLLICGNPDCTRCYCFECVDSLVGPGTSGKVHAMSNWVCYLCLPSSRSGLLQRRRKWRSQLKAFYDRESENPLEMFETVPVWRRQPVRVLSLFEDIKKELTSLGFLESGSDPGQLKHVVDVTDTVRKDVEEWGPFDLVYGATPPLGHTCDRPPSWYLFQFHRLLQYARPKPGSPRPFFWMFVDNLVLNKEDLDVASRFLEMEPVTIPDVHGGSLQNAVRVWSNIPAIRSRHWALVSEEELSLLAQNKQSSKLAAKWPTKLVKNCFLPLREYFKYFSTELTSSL

MV-4-11 AML cells = test: MV-4-11 cell proliferation assay (CellTiter-Glo, 6 days); format: cell-based; conditions: Homo sapiens, MV4-11, 144 h; 6 days treatment; binning as pXC50; read-out: MV4-11 Anti-proliferative activity (EC50 category)
Method: MV-4-11 Anti-Proliferative Activity (pEC50 Category)
Cell proliferation assay. Optimal cell seeding density was determined empirically for MV-4-11 AML cells by examining the growth of a wide range of seeding densities in a 384-well format to identify conditions that permitted maximal and continued proliferation for 6 days. MV-4-11 cells were plated in duplicate plates 24 hours before treatment with a 20-point two-fold dilution series of compound or 0.15% DMSO. Plates were incubated for 6 days at 37° C. in 5% CO2. Cells were then lysed with CellTiter-Glo (CTG) (Promega) and chemiluminescent signal was detected with an appropriate microplate reader. In addition, an untreated plate of cells was harvested at the time of compound addition (T0) to quantify the initial cell density. CTG values obtained after 6 days of treatment were expressed as a percent of the T0 value and plotted against compound concentration. Data were fit with a four parameter equation to generate a concentration response curve from which growth IC50 values were calculated.

[3] = read-out: DNMT3B Breaklight IC50
[4] = repeated experimental runs, read-out: average IC50, DNMT3B breaklight assay
[5] = read-out: DNMT3A Breaklight IC50
[6] = repeated experimental runs, read-out: average IC50, DNMT3A breaklight assay

Row | IC50 (human full length DNMT1) [µM] | IC50 (DNMT3B; [3]) [µM] | IC50 (DNMT3B; [4]) [µM] | IC50 (human DNMT3a/3l; [5]) [µM] | IC50 (human DNMT3a/3l; [6]) [µM] | EC50 (MV-4-11 AML cells) [µM] | SMILES | also measured
1 | ≤ 0.5 |  |  |  |  | 0.316 to 1 | CN1CCN(C2CCN(c3nc(SC(C(N)=O)c4ccccc4)c(C#N)c(C4CC4)c3C#N)CC2)CC1 (stereo not shown) [Example 40, 2-((3,5-Dicyano-4-cyclopropyl-6-(4-(4-methylpiperazin-1-yl)piperidin-1-yl)pyridin-2-yl)thio)-2-phenylacetamide] | 
2 | > 0.75 | > 500 | > 500 | > 500 | > 500 |  | CCc1c(C#N)c(N[C@@H](C(N)=O)c2ccccc2)nc(N2CCCNCC2)c1C#N [Example 41, (R)-2-((3,5-dicyano-6-(1,4-diazepan-1-yl)-4-ethylpyridin-2-yl)amino)-2-phenylacetamide] | 
3 |  | > 500 |  | > 500 |  | 1 to 31.6 | CC(Sc1nc(N2CCCNCC2)c(C#N)c(C2CC2)c1C#N)C(N)=O (stereo not shown) [Example 46, 2-((3,5-dicyano-4-cyclopropyl-6-(1,4-diazepan-1-yl)pyridin-2-yl)thio)propanamide] | 
4 | 0.89 | > 500 |  | > 500 |  |  | CCc1c(C#N)c(SC(C(N)=O)c2ccccc2)nc(N2CCC(O)CC2)c1C#N (stereo not shown) [Example 48, 2-((3,5-Dicyano-4-ethyl-6-(4-hydroxypiperidin-1-yl)pyridin-2-yl)thio)-2-phenylacetamide] | 
5 |  | 272 |  | > 500 |  | 1 to 31.6 | CCc1c(C#N)c(SC(C(N)=O)c2ccccc2)nc(N2CCNCC2)c1C#N (stereo not shown) [Example 55, 2-((3,5-Dicyano-4-ethyl-6-(piperazin-1-yl)pyridin-2-yl)thio)-2-phenylacetamide] | 
6 | ≤ 0.5 | > 500 | > 500 | > 500 | > 500 | 1 to 31.6 | CCc1c(C#N)c(SC(C(N)=O)c2ccccc2)nc(N2CCCN(C)CC2)c1C#N (stereo not shown) [Example 56, 2-((3,5-Dicyano-4-ethyl-6-(4-methyl-1,4-diazepan-1-yl)pyridin-2-yl)thio)-2-phenylacetamide] | 
7 |  | > 500 |  | > 500 |  | 0.316 to 1 | CCc1c(C#N)c(SC(C(N)=O)c2ccccc2)nc(N2CCOCC2)c1C#N (stereo not shown) [Example 57, 2-((3,5-Dicyano-4-ethyl-6-morpholinopyridin-2-yl)thio)-2-phenylacetamide] | 
8 | > 0.75 |  |  |  |  | 1 to 31.6 | N#Cc1c(SC(C(N)=O)c2ccccc2)nc(N2CCOC(CO)C2)c(C#N)c1C1CC1 (stereo not shown) [Example 63, 2-((3,5-Dicyano-4-cyclopropyl-6-(2-(hydroxymethyl)morpholino)pyridin-2-yl)thio)-2-phenylacetamide] | 

The next lines start with the compound.

Row | SMILES | IC50 (human full length DNMT1) [µM] | IC50 (DNMT3B; [3]) [µM] | IC50 (DNMT3B; [4]) [µM] | IC50 (human DNMT3a/3l; [5]) [µM] | IC50 (human DNMT3a/3l; [6]) [µM] | EC50 (MV-4-11 AML cells) [µM] | also measured
9 | CCc1c(C#N)c(SC(C(N)=O)c2ccccc2)nc(N(C)C)c1C#N (stereo not shown) [Compound A, 2-{[3,5-dicyano-6-(dimethylamino)-4-ethylpyridin-2-yl]sulfanyl}-2-phenylacetamide] |  |  |  |  |  |  | % HbF protein [1]: dose dependent increases; increase in % F RBCs ([2]; 10 mg/kg BID oral, p<0.001): 6 fold; increase in % F reticulocytes ([2]; 10 mg/kg BID oral, p<0.001): 4 fold; increase in % HbF protein ([2]; 10 mg/kg BID oral, p<0.05): 5.4 fold; increase in % F RBCs ([2]; 50 mg/kg BID oral, p<0.001): 8 fold; increase in % F reticulocytes ([2]; 50 mg/kg BID oral, p<0.001): 9 fold; increase in % HbF protein ([2]; 50 mg/kg BID oral, p<0.001): 10.3 fold
10 | CCc1c(C#N)c(SC(C(N)=O)c2ccccc2)nc(N2CCNC(=O)CC2)c1C#N (stereo not shown) [Example 8, 2-{[3,5-dicyano-4-ethyl-6-(5-oxo-1,4-diazepan-1-yl)pyridin-2-yl]sulfanyl}-2-phenylacetamide] | > 0.75 | > 500 | > 500 | > 500 | > 500 | 1 to 31.6 | 
11 | N#Cc1c(SC(C(N)=O)c2ccncc2)nc(N2CCOCC2)c(C#N)c1C1CC1 (stereo not shown) [Example 9, 2-((3,5-dicyano-4-cyclopropyl-6-morpholinopyridin-2-yl)thio)-2-(pyridin-4-yl)acetamide] | > 0.75 | > 500 | > 500 | > 500 | > 500 |  | 
12 | CCc1c(C#N)c(SC(C(N)=O)c2ccccc2)nc(N2CCN(CC)CC2)c1C#N (stereo not shown) [Example 35, 2-((3,5-dicyano-4-ethyl-6-(4-ethylpiperazin-1-yl)pyridin-2-yl)thio)-2-phenylacetamide] | > 0.75 | > 500 | > 500 | > 500 | > 500 |  | 
13 | CCc1c(C#N)c(SC(C(N)=O)c2ccccc2)nc(N2CCC23CCNCC3)c1C#N (stereo not shown) [Example 38, 2-((3,5-Dicyano-4-ethyl-6-(1,7-diazaspiro[3.5]nonan-1-yl)pyridin-2-yl)thio)-2-phenylacetamide trifluoroacetate] | > 0.75 |  |  |  |  | 1 to 31.6 | 
14 | CN1CCN(CC2CCN(c3nc(SC(C(N)=O)c4ccccc4)c(C#N)c(C4CC4)c3C#N)CC2)CC1 (stereo not shown) [Example 125, 2-((3,5-Dicyano-4-cyclopropyl-6-(4-((4-methylpiperazin-1-yl)methyl)piperidin-1-yl)pyridin-2-yl)thio-2-phenylacetamide trifluoroacetate] |  | 75 |  | 322 |  | 0.316 to 1 | 
